From paper PMC9120017, “Inhibition mechanism of the chloride channel TMEM16A by the pore blocker 1PBC” (Nature Communications, 2022)
“And” between values parts separate entries of the source, which are not always exact repeats. Identical values can stand only once.

Molecular target: T1, wild-type mouse TMEM16A (Mus musculus, UniProt Q8BHY3)
T1 construct: expressed in transfected cells; host or cells: HEK293T
T1 sequence (Q8BHY3 1-960): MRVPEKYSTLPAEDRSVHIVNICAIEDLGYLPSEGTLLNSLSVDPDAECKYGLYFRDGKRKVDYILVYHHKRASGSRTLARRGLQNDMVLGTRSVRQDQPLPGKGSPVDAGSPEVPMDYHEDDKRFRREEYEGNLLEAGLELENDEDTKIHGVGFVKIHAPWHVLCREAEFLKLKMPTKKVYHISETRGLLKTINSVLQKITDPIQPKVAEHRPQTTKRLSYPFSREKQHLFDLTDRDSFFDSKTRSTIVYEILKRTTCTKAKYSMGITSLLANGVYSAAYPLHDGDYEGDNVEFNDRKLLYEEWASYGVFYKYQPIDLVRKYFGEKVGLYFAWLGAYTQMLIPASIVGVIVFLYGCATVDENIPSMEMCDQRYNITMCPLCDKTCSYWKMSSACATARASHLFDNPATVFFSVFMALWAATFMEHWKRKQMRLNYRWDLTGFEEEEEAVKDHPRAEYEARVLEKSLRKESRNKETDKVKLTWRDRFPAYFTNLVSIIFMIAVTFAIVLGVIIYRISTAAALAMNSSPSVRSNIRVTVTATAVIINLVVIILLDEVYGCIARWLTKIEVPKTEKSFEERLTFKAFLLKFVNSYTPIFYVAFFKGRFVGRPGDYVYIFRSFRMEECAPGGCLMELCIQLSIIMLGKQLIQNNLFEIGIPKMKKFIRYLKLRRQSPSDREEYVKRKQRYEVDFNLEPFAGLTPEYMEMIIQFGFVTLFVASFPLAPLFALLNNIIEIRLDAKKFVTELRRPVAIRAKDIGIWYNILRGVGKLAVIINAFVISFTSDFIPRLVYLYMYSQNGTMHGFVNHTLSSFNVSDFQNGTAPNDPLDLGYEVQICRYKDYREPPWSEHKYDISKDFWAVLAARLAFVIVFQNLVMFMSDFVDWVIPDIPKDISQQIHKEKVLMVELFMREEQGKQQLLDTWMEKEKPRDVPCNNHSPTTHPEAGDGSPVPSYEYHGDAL
Assay: Global fit of 1PBC inhibition profiles to an open-channel block mechanism
Assay type: cell-based
Description: The inhibition profiles of 1PBC at different Ca^2+ concentrations were fitted to a mechanism assuming that the blocker preferentially binds to the open state. This was incorporated by adding a blocker binding step to the open state in a gating mechanism that we described previously[28] (Supplementary Fig. 9a). The matrix notation of this mechanism[73] is 4 Q=−k01−bk07v07^δb/2k0100000bk07v07^δb/2k10−k10−k12k12000000k21−k21−k23−k24k23k2400000k32−k32−k35v35^δCa/20k35v35^δCa/20000xk42v42^δCa/20−xk42v42^δCa/2−k45k4500000xk53v53^δCa/2k54−xk53v53^δCa/2−k54−k56v56^δCa/2k56v56^δCa/2000000xk65v65^δCa/2−xk65v65^δCa/20k70v70^δb/2000000−k70v70^δb/2 where x and b are the molar concentration of Ca^2+ and the blocker respectively, and the subscripts indicate the transition described by the rate constant k in s^−1, for example, k01 corresponds to the rate constant of the transition from state 0 to 1. δb and δCa are the fraction of membrane potential that modulates the corresponding transitions. […]
The equilibrium occupancy of states was calculated using[73],[74]7 P∞=P(0)(Vλ=0V^−1λ=0) where P(0) is the initial occupancy and V can be obtained from the Eigen decomposition of Q8 Q=VΛV^−1 and9 Λ=λ1⋱λnV=v11⋯vn1⋮⋱⋮v1n⋯vnn are the Eigenvalue and Eigenvector matrices respectively. The open probability calculated using Eq. 7 was used to compute the squared difference for each data point. […]

Apparent valence δb (fit at +80 and −80 mV): ~ 0.27 and 0.27 ± 0.025 | Kd (zero mV, read-out: Kd 1PBC (open state)): ~3.6 µM and 3.6 µM
SMILES: N#Cc1c(C(F)(F)F)cc(O)n2c1nc1ccccc12 [1PBC]
